Counter-ions that a name gives are not always drawn. Like-named read-outs stand apart in the source and are kept apart here.
Assays:
SUDHL5 [1] = assay: Induction of cytotoxicity (Assay 6), SUDHL5
Experimental: Assay 6 Induction of Cytotoxicity Upon Treatment of Cells with Selected Compounds
Therefore, cytotoxicity assays were run in parallel in SUDHL5 and SUDHL10 cells.
The different cell lines were plated in culture medium (RPMI 1640 [GIBCO #22400-089]supplemented with 10% Fetal Bovine Serum) at a density of 3,300 cells in 30 μL/well in a sterile, solid black, flat bottom, polystyrene, TC-treated 384-well microplate (Corning #3571) using Multidrop Combi Reagent Dispenser. As a control, medium without cells was also added to the plate. Cells were incubated in a humidified incubator at 37° C. overnight. […] Rim wells were excluded. The cells were incubated for 5 hours in a humidified incubator at 37° C. After this incubation, 30 μL of CellTiter-Glo® Luminescent Cell Viability reagent (Promega, G7573) was added to each well using the Multidrop Combi Reagent Dispenser, followed by 15 minutes incubation on a shaker at room temperature. Finally, luminescence was read at 0.1 ms, with a gain of 3000 using the PHERAstar FS microplate reader (BMG Labtech).

SUDHL10 [2] = assay: Induction of caspase-3/7 activity (Assay 4), SUDHL10; assay type: cell-based; settings: SUDHL10 cells
Experimental: (§1) Induction of Caspase-3/7 Activity Upon Treatment of Cells with Selected Compounds
In contrast, MCL-1 inhibitors are expected to antagonize this effect leading to an increase in apoptosis, which can be determined by measuring the activity of caspase-3/7.
(§2) The activity of caspase-3/7 was determined in DLBCL (Diffuse large B-cell lymphoma) cell lines (SUDHL5 and SUDHL10) upon treatment with different compounds, using the Caspase-Glo®3/7 reagent from Promega (G8092).
(§3) Rim wells were excluded. The cells were incubated for 3 hours in a humidified incubator at 37° C.
(§4) For the evaluation of the results, the background measured with “medium-only” was subtracted from all other values.

AMO-1 = assay: Antiproliferation assay 7, AMO-1; assay type: cell-based; settings: AMO-1 cells, CellTiter-Glo, read-out: Antiproli AMO-1 IC50 median
Experimental: (§5) Assessment of the Anti-Proliferative Effect of Compounds in Different Cell Lines
(§6) The impact of compounds on the proliferation of different cell lines was assessed using the CellTiter-Glo® Luminescent Cell Viability reagent from Promega (G7573).
(§7) In parallel, cells were plated in a reference (day 0) plate for time zero determination.
(§8) Rim wells were excluded. The cells were incubated for 72 hours in a humidified incubator at 37° C. The day 0 plate was measured by adding 30 μL/well of CTG solution (CellTiter-Glo® Luminescent Cell Viability reagent, Promega G7573) to time zero wells in the reference plate followed by a 10 minutes incubation and luminescence reading at 0.1 ms. using the PHERAstar FS microplate reader (BMG Labtech).
(§9) After 72 hours incubation, the treated plates were measured in the same way as the day 0 plate mentioned above.

SUDHL5 [3] = assay: Induction of caspase-3/7 activity (Assay 4), SUDHL5; assay type: cell-based; settings: SUDHL5 cells
Experimental: as §1
The BH3-domain of MCL-1 sequesters pro-apoptotic proteins, thereby inhibiting apoptosis. In contrast, MCL-1 inhibitors are expected to antagonize this effect leading to an increase in apoptosis, which can be determined by measuring the activity of caspase-3/7.
as §2, §3, §4

SUDHL5 [4] = assay: Antiproliferation assay 7, SUDHL5; assay type: cell-based; settings: SUDHL5 cells, CellTiter-Glo, read-out: Antiproli SUDHL5 IC50 (median)
Experimental: as §5, §6, §7, §8, §9

SUDHL10 [5] = assay: Induction of cytotoxicity (Assay 6), SUDHL10
MV-4-11 = assay: Antiproliferation assay 7, MV-4-11; assay type: cell-based; settings: MV-4-11 cells, CellTiter-Glo, read-out: Antiproli MV-4-11 IC50 median
Experimental: as §5, §6, §7, §8, §9

[6] = read-out: Cytotox SUDHL5 IC50 (median), SUDHL5 cells, 5 hours, CellTiter-Glo
[7] = 3 hours, Caspase-Glo 3/7, read-out: Caspase SUDHL10 EC50 (median)
[8] = 3 hours, Caspase-Glo 3/7, read-out: Caspase SUDHL5 EC50 (median)
[9] = read-out: Cytotox SUDHL10 IC50 (median), SUDHL10 cells, 5 hours, CellTiter-Glo
[10] = Homo sapiens, SU-DHL-5, 5 h, read-out: Cytotox SUDHL5 IC50 (median), SUDHL5 cells, 5 hours, CellTiter-Glo
[11] = Homo sapiens, SU-DHL10, 3 h, Caspase-Glo 3/7, read-out: Caspase SUDHL10 EC50 (median)
[12] = Homo sapiens, SU-DHL-5, 3 h, Caspase-Glo 3/7, read-out: Caspase SUDHL5 EC50 (median)
[13] = Homo sapiens, SU-DHL10, 5 h, read-out: Cytotox SUDHL10 IC50 (median), SUDHL10 cells, 5 hours, CellTiter-Glo

Work on `Cc1c2c(nn1C)COCC1CCC1Cn1c(C(=O)O)c(CCCOc3cccc4ccccc34)c3ccc(Cl)c-2c31` (single isomer, unassigned; stereoisomer 2) [Example 64] yielded an IC50 (SUDHL5 [1]; [6]) of 2.3 µM, an EC50 (SUDHL10 [2]; [7]) of 8.3 µM and an IC50 (AMO-1; 72 hours) of 10.8 µM. For the same molecule, the EC50 (SUDHL5 [3]; [8]) was 1.8 µM, the IC50 (SUDHL5 [4]; 72 hours) was 4.2 µM and the IC50 (SUDHL10 [5]; [9]) was 7.3 µM.
With `Cc1c2c(nn1C)CNCCCn1c(C(=O)O)c(CCCOc3cccc4ccccc34)c3ccc(Cl)c-2c31` (racemic) [Example 28, (rac)-12-chloro-10,11-dimethyl-1-[3-(naphthalen-1-yloxy)propyl]-4,5,6,7,8,10-hexahydropyrazolo[3′,4′:7,8][1,5]diazecino[9,10,1-hi]indole-2-carboxylic Acid-Formic Acid Salt] the IC50 (MV-4-11; Homo sapiens, MV4-11, 72 h) was 8.08 µM, the IC50 (SUDHL5 [1]; [10]) was 3.3 µM and the EC50 (SUDHL10 [2]; [11]) was 5.8 µM. The EC50 (SUDHL5 [3]; [12]) was 2.9 µM, the IC50 (SUDHL5 [4]; Homo sapiens, SU-DHL-5, 72 h) was 3 µM and the IC50 (SUDHL10 [5]; [13]) was 5.6 µM.
With `Cc1c2c(nn1C)COCCCCn1c(C(=O)O)c(CCCOc3cccc4cc(F)ccc34)c3ccc(Cl)c-2c31` (single isomer, unassigned; enantiomer 2) [Example 17, (−)-4-chloro-7-{3-[(6-fluoronaphthalen-1-yl)oxy]propyl}-2,3-dimethyl-2,10,11,12,13,15-hexahydropyrazolo[4′,3′:9,10][1,6]oxazacycloundecino[8,7,6-hi]indole-8-carboxylic acid-N-ethylethanamine Salt (Enantiomer 2)] the IC50 (MV-4-11; 72 hours) was 6.7 µM, the IC50 (SUDHL5 [1]; [6]) was 3.3 µM and the EC50 (SUDHL10 [2]; [7]) was 5.2 µM. It also gave an IC50 (AMO-1; 72 hours) of 8.91 µM, an EC50 (SUDHL5 [3]; [8]) of 3.6 µM and an IC50 (SUDHL5 [4]; 72 hours) of 1.5 µM.
Molecule `CCc1c2c(nn1C)COCCCCn1c(C(=O)O)c(CCCOc3cccc4ccccc34)c3ccc(Cl)c-2c31` (single isomer, unassigned; enantiomer 2) [Example 21, 4-chloro-3-ethyl-2-methyl-7-[3-(naphthalen-1-yloxy)propyl]-2,10,11,12,13,15-hexahydropyrazolo[4′,3′:9,10][1,6]oxazacycloundecino[8,7,6-hi]indole-8-carboxylic Acid (Enantiomer 2)] has an IC50 (SUDHL5 [1]; [6]) of 3.7 µM, an EC50 (SUDHL5 [3]; [8]) of 4.6 µM and an IC50 (SUDHL5 [4]; 72 hours) of 3.3 µM. For the same molecule, the IC50 (SUDHL10 [5]; [9]) was 11 µM.
Work on `CCc1c2c(nn1C)CN(C)CCCCn1c(C(=O)O)c(CCCOc3cccc4ccccc34)c3ccc(Cl)c-2c31` (single isomer, unassigned; enantiomer 2) [Example 24, 4-chloro-3-ethyl-2,14-dimethyl-7-[3-(naphthalen-1-yloxy)propyl]-10,11,12,13,14,15-hexahydro-2H-pyrazolo[3′,4′:8,9][1,6]diazacycloundecino[10,11,1-hi]indole-8-carboxylic Acid (Enantiomer 2)] yielded an IC50 (MV-4-11; 72 hours) of 6.72 µM, an IC50 (SUDHL5 [1]; [6]) of 4.7 µM and an EC50 (SUDHL10 [2]; [7]) of 10 µM. For the same molecule, the IC50 (SUDHL5 [4]; 72 hours) was 3.4 µM and the IC50 (SUDHL10 [5]; [9]) was 7.4 µM.
`CCc1nn(CCN2CCOCC2)c2c1-c1c(Cl)ccc3c(CCCOc4cccc5ccccc45)c(C(=O)O)n(c13)CCCCN(C)C2` (single isomer, unassigned; enantiomer 2) [Example 47, 4-chloro-3-ethyl-14-methyl-1-[2-(morpholin-4-yl)ethyl]-7-{3-[(naphthalen-1-yl)oxy]propyl}-10,11,12,13,14,15-hexahydro-1H-pyrazolo[3′,4′:8,9][1,6]diazacycloundecino[10,11,1-hi]indole-8-carboxylic Acid (Enantiomer 2)] was tested, and the IC50 (MV-4-11; 72 hours) was 5.65 µM, the IC50 (SUDHL5 [1]; [6]) was 10 µM and the EC50 (SUDHL10 [2]; [7]) was 22 µM. The EC50 (SUDHL5 [3]; [8]) was 11 µM, the IC50 (SUDHL5 [4]; 72 hours) was 8 µM and the IC50 (SUDHL10 [5]; [9]) was 17 µM.
In the case of `Cc1c2c(nn1C)CN(C)CCCCn1c(C(=O)O)c(CCCOc3cccc4ccccc34)c3ccc(Cl)c-2c31` (single isomer, unassigned; enantiomer 2) [Example 13, (−)-4-chloro-2,3,14-trimethyl-7-[3-(naphthalen-1-yloxy)propyl]-10,11,12,13,14,15-hexahydro-2H-pyrazolo[3′,4′:8,9][1,6]diazacycloundecino[10,11,1-hi]indole-8-carboxylic acid-N-ethylethanamine Salt (Enantiomer 2)], the IC50 (MV-4-11; 72 hours) is reported as 12.2 µM, the IC50 (SUDHL5 [1]; [6]) is reported as 6.9 µM and the EC50 (SUDHL5 [3]; [8]) is reported as 10 µM. The IC50 (SUDHL5 [4]; 72 hours) was 6.4 µM and the IC50 (SUDHL10 [5]; [9]) was 13 µM.
`CCc1nn(CCN2CCOCC2)c2c1-c1c(Cl)ccc3c(CCCOc4cccc5ccccc45)c(C(=O)O)n(c13)CCCCOC2` (single isomer, unassigned; enantiomer 2) [Example 10, 4-chloro-3-ethyl-1-[2-(morpholin-4-yl)ethyl]-7-[3-(naphthalen-1-yloxy)propyl]-1,10,11,12,13,15-hexahydropyrazolo[4′,3′:9,10][1,6]oxazacycloundecino[8,7,6-hi]indole-8-carboxylic acid-N-ethylethanamine Salt (Enantiomer 2)] gave an IC50 (MV-4-11; Homo sapiens, MV4-11, 72 h) of 10.9 µM, an IC50 (SUDHL5 [1]; [10]) of 5.2 µM and an EC50 (SUDHL10 [2]; [11]) of 14 µM. For the same molecule, the EC50 (SUDHL5 [3]; [12]) was 6.6 µM, the IC50 (SUDHL5 [4]; Homo sapiens, SU-DHL-5, 72 h) was 4.9 µM and the IC50 (SUDHL10 [5]; [13]) was 11 µM.
For `CCc1c2c(nn1C)N(CCC1CCOCC1)CCCCCn1c(C(=O)O)c(CCCOc3cccc4cc(F)ccc34)c3ccc(Cl)c-2c31` (single isomer, unassigned; enantiomer 2) [Example 82, 4-chloro-3-ethyl-7-{3-[(6-fluoronaphthalen-1-yl)oxy]propyl}-2-methyl-15-[2-(oxan-4-yl)ethyl]-10,11,12,13,14,15-hexahydro-2H-pyrazolo[4′,3′:4,5][1,6]diazacycloundecino[3,2,1-hi]indole-8-carboxylic acid N-ethylethanamine Salt—Enantiomer 2], the IC50 (SUDHL5 [1]; [6]) was 28 µM, the EC50 (SUDHL10 [2]; [7]) was 23 µM and the EC50 (SUDHL5 [3]; [8]) was 24 µM. It also gave an IC50 (SUDHL5 [4]; 72 hours) of 7.1 µM and an IC50 (SUDHL10 [5]; [9]) of 30 µM.
With `Cc1c2c(nn1C)CN(C)CCCn1c(C(=O)O)c(CCCOc3cccc4ccccc34)c3ccc(Cl)c-2c31` (racemic) [Example 29, (rac)-12-chloro-7,10,11-trimethyl-1-[3-(naphthalen-1-yloxy)propyl]-4,5,6,7,8,10-hexahydropyrazolo[3′,4′:7,8][1,5]diazecino[9,10,1-hi]indole-2-carboxylic Acid] the IC50 (MV-4-11; Homo sapiens, MV4-11, 72 h) was 2.68 µM, the EC50 (SUDHL10 [2]; [11]) was 3.7 µM and the EC50 (SUDHL5 [3]; [12]) was 1.2 µM. It also gave an IC50 (SUDHL10 [5]; [13]) of 3.2 µM.
`CCc1nn(C)c2c1-c1c(Cl)ccc3c(CCCOc4cccc5cc(F)ccc45)c(C(=O)O)n(c13)CCCCOC2` (racemic) [Example 33, (rac)-4-chloro-3-ethyl-7-{3-[(6-fluoronaphthalen-1-yl)oxy]propyl}-1-methyl-1,10,11,12,13,15-hexahydropyrazolo[4′,3′:9,10][1,6]oxazacycloundecino[8,7,6-hi]indole-8-carboxylic Acid] was tested, and the IC50 (MV-4-11; Homo sapiens, MV4-11, 72 h) was 1.7 µM, the IC50 (SUDHL5 [1]; [10]) was 1 µM and the EC50 (SUDHL10 [2]; [11]) was 5.7 µM. The IC50 (AMO-1; Homo sapiens, AMO1, 72 h) was 1.58 µM and the EC50 (SUDHL5 [3]; [12]) was 0.67 µM.
Molecule `CCc1nn(C)c2c1-c1c(Cl)ccc3c(CCCOc4cccc5cc(F)ccc45)c(C(=O)O)n(c13)CCCCOC2` (single isomer, unassigned; enantiomer 2) [Example 35, (−)-4-chloro-3-ethyl-7-{3-[(6-fluoronaphthalen-1-yl)oxy]propyl}-1-methyl-1,10,11,12,13,15-hexahydropyrazolo[4′,3′:9,10][1,6]oxazacycloundecino[8,7,6-hi]indole-8-carboxylic Acid (Enantiomer 2)] has an IC50 (MV-4-11; 72 hours) of 8.59 µM, an IC50 (SUDHL5 [1]; [6]) of 6.3 µM and an EC50 (SUDHL10 [2]; [7]) of 22 µM. For the same molecule, the IC50 (AMO-1; 72 hours) was 13.3 µM, the EC50 (SUDHL5 [3]; [8]) was 7.6 µM and the IC50 (SUDHL5 [4]; 72 hours) was 6.1 µM.

— patent US11447504B2, “Macrocyclic chlorine substituted indole derivatives” (Bayer Aktiengesellschaft, priority 2017, dated 2022)
